The text below walks through data of patent US10556914B2, “Substituted isoxazolopyridazinones and isothiazolopyridazinones and methods of use” (AbbVie Inc., priority 2015, dated 2020).

Chain of GABA-B receptor (Q9Z0U4 17-960): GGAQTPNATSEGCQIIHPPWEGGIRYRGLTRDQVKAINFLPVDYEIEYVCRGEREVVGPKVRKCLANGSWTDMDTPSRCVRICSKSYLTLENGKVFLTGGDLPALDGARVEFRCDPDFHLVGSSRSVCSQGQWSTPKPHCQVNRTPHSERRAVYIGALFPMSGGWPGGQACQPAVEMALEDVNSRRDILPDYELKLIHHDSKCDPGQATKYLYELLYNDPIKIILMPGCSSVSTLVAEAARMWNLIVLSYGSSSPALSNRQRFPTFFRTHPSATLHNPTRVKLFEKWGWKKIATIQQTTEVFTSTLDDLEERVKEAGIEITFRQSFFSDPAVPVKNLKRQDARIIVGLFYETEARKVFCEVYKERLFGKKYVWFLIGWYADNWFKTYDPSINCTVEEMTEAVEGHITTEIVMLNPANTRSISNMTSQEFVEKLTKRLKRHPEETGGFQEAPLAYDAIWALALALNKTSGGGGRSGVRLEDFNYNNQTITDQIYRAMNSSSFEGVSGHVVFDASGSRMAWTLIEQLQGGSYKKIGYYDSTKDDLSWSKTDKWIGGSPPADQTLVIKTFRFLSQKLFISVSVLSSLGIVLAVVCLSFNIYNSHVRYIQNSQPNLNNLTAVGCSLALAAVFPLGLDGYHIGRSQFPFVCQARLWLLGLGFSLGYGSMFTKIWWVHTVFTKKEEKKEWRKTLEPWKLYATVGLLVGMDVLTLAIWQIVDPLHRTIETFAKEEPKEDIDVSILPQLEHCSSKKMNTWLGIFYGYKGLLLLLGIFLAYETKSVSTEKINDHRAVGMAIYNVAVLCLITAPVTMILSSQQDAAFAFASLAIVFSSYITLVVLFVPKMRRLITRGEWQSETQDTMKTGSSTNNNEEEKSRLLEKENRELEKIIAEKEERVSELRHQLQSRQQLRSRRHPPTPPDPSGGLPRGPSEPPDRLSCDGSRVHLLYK
Chain of GABA-B receptor (O88871 41-940): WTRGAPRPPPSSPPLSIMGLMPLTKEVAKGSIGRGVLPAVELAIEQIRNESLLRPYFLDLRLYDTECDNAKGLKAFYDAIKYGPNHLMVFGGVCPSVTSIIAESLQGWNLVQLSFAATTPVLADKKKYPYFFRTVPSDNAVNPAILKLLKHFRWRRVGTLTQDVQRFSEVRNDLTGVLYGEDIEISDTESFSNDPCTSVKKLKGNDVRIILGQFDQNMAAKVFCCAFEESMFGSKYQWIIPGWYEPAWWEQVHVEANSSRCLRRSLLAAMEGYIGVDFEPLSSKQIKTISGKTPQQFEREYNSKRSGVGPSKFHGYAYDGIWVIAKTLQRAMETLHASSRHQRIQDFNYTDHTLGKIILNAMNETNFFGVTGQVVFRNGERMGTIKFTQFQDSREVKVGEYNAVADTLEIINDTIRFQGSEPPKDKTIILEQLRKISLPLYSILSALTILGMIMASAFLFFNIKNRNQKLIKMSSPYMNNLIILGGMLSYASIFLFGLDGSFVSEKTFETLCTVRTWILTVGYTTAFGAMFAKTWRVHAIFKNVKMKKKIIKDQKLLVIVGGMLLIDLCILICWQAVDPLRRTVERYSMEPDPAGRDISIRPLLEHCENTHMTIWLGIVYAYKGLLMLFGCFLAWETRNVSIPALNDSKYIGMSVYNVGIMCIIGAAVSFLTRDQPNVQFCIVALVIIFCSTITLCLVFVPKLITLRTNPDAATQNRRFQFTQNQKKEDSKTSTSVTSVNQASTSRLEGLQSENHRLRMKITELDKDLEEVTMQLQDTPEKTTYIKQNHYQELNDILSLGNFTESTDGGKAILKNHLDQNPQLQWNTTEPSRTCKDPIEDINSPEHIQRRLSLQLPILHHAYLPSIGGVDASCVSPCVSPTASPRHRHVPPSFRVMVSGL

This experiment has as its target GABA-B receptor (Rattus norvegicus (Rat), UniProt O88871+Q9Z0U4). Kind of experiment: [35S]GTPgS Binding Assay (rat brain cortex membranes, native receptor). The format is biochemical. The note with it: rat cortical membranes; in the presence of 1 μM GABA (EC25); basal binding 0%, maximal binding (1 mM GABA) 100%. The protocol: Preparation of Rat Brain Membranes for Native Receptor Assays
Membranes from rat brain cortex were prepared as described in detail by Olpe et al. and stored at concentrations of 1.66 mg/mL protein at −80° C. until required. (Olpe, H.-R, et al. Eur J Pharmacol 1990; 187: 27-38).
[^35S]GTPgS Binding Assay
The samples were incubated at room temperature for 60 minutes on a shaker. The incubation was stopped by rapid vacuum filtration over glass-fiber filter plates (UniFilter-96 well, GF/B membrane plates, PerkinElmer) using a 96-well plate harvester (TOMTEK© Harvester). The UniFilter plate was washed five times with ice-cold wash buffer (50 mM Tris-HCl buffer, pH 7.7, 10 mM MgCl2, and 100 mM NaCl. After filtration the plate was dried for 90 minutes at 55° C. The plates were closed on the bottom with black sealing membranes, and liquid scintillation cocktail (35 μL, Betaplate Scint, PerkinElmer) was added to each well. After sealing the top of the plate, an additional incubation step of 90 minutes at room temperature followed before measuring the plate. The amount of membrane-bound [^35S]GTPgS was measured using a 96-well plate reader (Microbeta®, PerkinElmer). Nonspecific binding was measured in the presence of unlabeled 10 μM of GTPgS (Millipore) and without GABA. Basal binding was measured in the absence of 1 μM GABA, and maximal binding was measured in the presence of GABA using 1 mM GABA concentrations.
Data analysis. The concentration-response curves of compounds of the present disclosure in the presence of EC25 of GABA-B receptor agonist were generated using the GraphPad Prism® program (GraphPad Software, San Diego, Calif.). Data was normalized using basal binding as 0% and maximal binding as 100%. The curves were fitted by nonlinear regression allowing determination of EC50 values from sigmoidal dose-response curves. Each curve was performed using triplicate sample per date point and 10 concentrations.
For `CNC(=O)c1ccc(OC)c(-c2nn([C@@H](C)c3ccc(Cl)cc3)c(=O)c3c(C)noc23)c1` [Example 82, 3-{5-[(1S)-1-(4-chlorophenyl)ethyl]-3-methyl-4-oxo-4,5-dihydro[1,2]oxazolo[4,5-d]pyridazin-7-yl}-4-methoxy-N-methylbenzamide], the EC50 – broadly, the concentration at which the effect is half-maximal – is 0.023 µM. `Cc1noc2c(-c3ccc(F)cc3)nn(Cc3ccc(Cl)cc3)c(=O)c12` [Example 83, 5-(4-chlorobenzyl)-7-(4-fluorophenyl)-3-methyl[1,2]oxazolo[4,5-d]pyridazin-4(5H)-one]: the EC50 worked out at 3.09 µM.

For `CC(=O)Nc1cccc(-c2nn(Cc3cc(C(F)(F)F)ccc3F)c(=O)c3c(C)noc23)c1` [Example 85, N-(3-{5-[2-fluoro-5-(trifluoromethyl)benzyl]-3-methyl-4-oxo-4,5-dihydro[1,2]oxazolo[4,5-d]pyridazin-7-yl}phenyl)acetamide], the concentration for a half-maximal effect (EC50) was 2.62 µM. Turning to `Cc1noc2c(-c3cccnc3N)nn(C(C)c3ccc(Cl)cc3)c(=O)c12` (centres unmarked) [Example 86, 7-(2-aminopyridin-3-yl)-5-[1-(4-chlorophenyl)ethyl]-3-methyl[1,2]oxazolo[4,5-d]pyridazin-4(5H)-one], the concentration for a half-maximal effect (EC50) amounted to 2.76 µM. Under `COc1ccc(-c2nn(Cc3ccc(Cl)cc3)c(=O)c3c(C)noc23)c(OC)c1` [Example 87, 5-(4-chlorobenzyl)-7-(2,4-dimethoxyphenyl)-3-methyl[1,2]oxazolo[4,5-d]pyridazin-4(5H)-one] stands 1.03 µM.

In the case of `CCCc1noc2c(-c3cccc(NC(C)=O)c3)nn(Cc3ccc(Cl)cc3)c(=O)c12` [Example 91, N-{3-[5-(4-chlorobenzyl)-4-oxo-3-propyl-4,5-dihydro[1,2]oxazolo[4,5-d]pyridazin-7-yl]phenyl}acetamide], the EC50 came to 2.12 µM. On to `COc1ccc(OC)c(-c2nn(Cc3ccc(C(F)(F)F)cc3)c(=O)c3c(C)noc23)c1` [Example 95, 7-(2,5-dimethoxyphenyl)-3-methyl-5-[4-(trifluoromethyl)benzyl][1,2]oxazolo[4,5-d]pyridazin-4(5H)-one], for which the EC50 was found to be 1.74 µM. For the molecule `Cc1noc2c(-c3cc(F)ccc3N)nn(C(C)c3ccc(Cl)cc3)c(=O)c12` (centres unmarked) [Example 97, 7-(2-amino-5-fluorophenyl)-5-[1-(4-chlorophenyl)ethyl]-3-methyl[1,2]oxazolo[4,5-d]pyridazin-4(5H)-one], the EC50 is 1.85 µM.

Regarding `COc1ccc(C(=O)N2CCCC2)cc1-c1nn(C(C)c2ccc(Cl)cc2)c(=O)c2c(C)noc12` (centres unmarked) [Example 98, 5-[1-(4-chlorophenyl)ethyl]-7-[2-methoxy-5-(pyrrolidin-1-ylcarbonyl)phenyl]-3-methyl[1,2]oxazolo[4,5-d]pyridazin-4(5H)-one], the half-maximal effective concentration (EC50) stood at 0.45 µM. With `Cc1noc2c(-c3ccccc3O)nn(C(C)c3ccc(Cl)cc3)c(=O)c12` (centres unmarked) [Example 100, 5-[1-(4-chlorophenyl)ethyl]-7-(2-hydroxyphenyl)-3-methyl[1,2]oxazolo[4,5-d]pyridazin-4(5H)-one], the EC50 stood at 0.667 µM. Regarding `COc1ccccc1-c1nn(Cc2ccc(OC)c(C(F)(F)F)c2)c(=O)c2c(C)noc12` [Example 101, 7-(2-methoxyphenyl)-5-[4-methoxy-3-(trifluoromethyl)benzyl]-3-methyl[1,2]oxazolo[4,5-d]pyridazin-4(5H)-one], the EC50 came out at 3.71 µM. As to `COc1ccc(OC)c(-c2nn(Cc3ccc(Cl)cc3)c(=O)c3c(C)noc23)c1` [Example 102, 5-(4-chlorobenzyl)-7-(2,5-dimethoxyphenyl)-3-methyl[1,2]oxazolo[4,5-d]pyridazin-4(5H)-one], the concentration for a half-maximal effect (EC50) was 0.846 µM. As to `COc1ccc(NC(C)=O)cc1-c1nn(C(C)c2ccc(C(F)(F)F)cc2)c(=O)c2c(C)noc12` (centres unmarked) [Example 103, N-[4-methoxy-3-(3-methyl-4-oxo-5-{(1)-1-[4-(trifluoromethyl)phenyl]ethyl}-4,5-dihydro[1,2]oxazolo[4,5-d]pyridazin-7-yl)phenyl]acetamide], the 50% effective concentration (EC50) was determined as 0.439 µM.

For `COc1ccc(NC(C)=O)cc1-c1nn([C@H](C)c2ccc(C(F)(F)F)cc2)c(=O)c2c(C)noc12` [Example 105, N-[4-methoxy-3-(3-methyl-4-oxo-5-{(1R)-1-[4-(trifluoromethyl)phenyl]ethyl}-4,5-dihydro[1,2]oxazolo[4,5-d]pyridazin-7-yl)phenyl]acetamide], the EC50 was 0.033 µM.

For the molecule `Cc1noc2c(-c3cccc(C(N)=O)c3)nn(C(C)c3ccc(Cl)cc3)c(=O)c12` (centres unmarked) [Example 106, 3-{5-[1-(4-chlorophenyl)ethyl]-3-methyl-4-oxo-4,5-dihydro[1,2]oxazolo[4,5-d]pyridazin-7-yl}benzamide], the EC50 came to 0.847 µM. Under `CC(=O)Nc1ccc(C)c(-c2nn(Cc3ccc(C(F)(F)F)cc3)c(=O)c3c(C)noc23)c1` [Example 107, N-(4-methyl-3-{3-methyl-4-oxo-5-[4-(trifluoromethyl)benzyl]-4,5-dihydro[1,2]oxazolo[4,5-d]pyridazin-7-yl}phenyl)acetamide] stands 1.47 µM; under `Cc1noc2c(-c3cccnc3)nn(C(C)c3ccc(Cl)cc3)c(=O)c12` (centres unmarked) [Example 109, 5-[1-(4-chlorophenyl)ethyl]-3-methyl-7-(pyridin-3-yl)[1,2]oxazolo[4,5-d]pyridazin-4(5H)-one], 1.21 µM. As for `CNC(=O)c1ccc(OC)c(-c2nn([C@H](C)c3ccc(Cl)cc3)c(=O)c3c(C)noc23)c1` [Example 111, 3-{5-[(1R)-1-(4-chlorophenyl)ethyl]-3-methyl-4-oxo-4,5-dihydro[1,2]oxazolo[4,5-d]pyridazin-7-yl}-4-methoxy-N-methylbenzamide], the figure is over 10 µM; as for `CC(=O)Nc1c(F)ccc(-c2nn([C@H](C)c3ccc(C(F)(F)F)cc3)c(=O)c3c(C)noc23)c1C` [Example 112, N-[6-fluoro-2-methyl-3-(3-methyl-4-oxo-5-{(1R)-1-[4-(trifluoromethyl)-phenyl]ethyl}-4,5-dihydro[1,2]oxazolo[4,5-d]pyridazin-7-yl)phenyl]acetamide], 3.63 µM. For the molecule `Cc1noc2c(-c3cncnc3)nn(C(C)c3ccc(Cl)cc3)c(=O)c12` (centres unmarked) [Example 113, 5-[1-(4-chlorophenyl)ethyl]-3-methyl-7-(pyrimidin-5-yl)[1,2]oxazolo[4,5-d]pyridazin-4(5H)-one], the EC50 was found to be 3.84 µM.

`Cc1nn(C(C)c2ccc(Cl)cc2)c(=O)c2c(C)noc12` (centres unmarked) [Example 114, 5-[1-(4-chlorophenyl)ethyl]-3,7-dimethyl[1,2]oxazolo[4,5-d]pyridazin-4(5H)-one]: the concentration for a half-maximal effect (EC50) worked out at 3.8 µM. As to `CCn1nccc1-c1nn(C(C)c2ccc(Cl)cc2)c(=O)c2c(C)noc12` (centres unmarked) [Example 115, 5-[1-(4-chlorophenyl)ethyl]-7-(1-ethyl-1H-pyrazol-5-yl)-3-methyl[1,2]oxazolo[4,5-d]pyridazin-4(5H)-one], the EC50 is 4.12 µM. For `Cc1noc2c(-c3cnc4cc[nH]c4c3)nn(C(C)c3ccc(Cl)cc3)c(=O)c12` (centres unmarked) [Example 116, 5-[1-(4-chlorophenyl)ethyl]-3-methyl-7-(1H-pyrrolo[3,2-b]pyridin-6-yl)[1,2]oxazolo[4,5-d]pyridazin-4(5H)-one], the EC50 is 0.855 µM. For the molecule `COc1ccc(NC(C)=O)cc1-c1nn([C@@H](C)c2ccc(Cl)cc2)c(=O)c2c(C)noc12` [Example 117, N-(3-{5-[(1S)-1-(4-chlorophenyl)ethyl]-3-methyl-4-oxo-4,5-dihydro[1,2]oxazolo[4,5-d]pyridazin-7-yl}-4-methoxyphenyl)acetamide], the EC50 was 0.043 µM. Under `COc1ccccc1-c1nn(Cc2ccc(C(F)(F)F)cc2)c(=O)c2c(C)noc12` [Example 118, 7-(2-methoxyphenyl)-3-methyl-5-[4-(trifluoromethyl)benzyl][1,2]oxazolo[4,5-d]pyridazin-4(5H)-one] stands 2.93 µM; under `CNC(=O)c1ccc(OC)c(-c2nn(C(C)c3ccc(Cl)cc3)c(=O)c3c(C)noc23)c1` (centres unmarked) [Example 119, 3-{5-[1-(4-chlorophenyl)ethyl]-3-methyl-4-oxo-4,5-dihydro[1,2]oxazolo[4,5-d]pyridazin-7-yl}-4-methoxy-N-methylbenzamide], 0.056 µM. Under `Cc1noc2c(-c3cccnc3)nn(Cc3ccc(Cl)cc3)c(=O)c12` [Example 120, 5-(4-chlorobenzyl)-3-methyl-7-(pyridin-3-yl)[1,2]oxazolo[4,5-d]pyridazin-4(5H)-one] stands 6.82 µM; under `Cc1noc2c(-c3ccccc3)nn(Cc3ccc(Cl)cc3)c(=O)c12` [Example 122, 5-(4-chlorobenzyl)-3-methyl-7-phenyl[1,2]oxazolo[4,5-d]pyridazin-4(5H)-one], 3.8 µM. Consider `COc1ccc(OC)c(-c2nn([C@H](C)c3ccc(C(F)(F)F)cc3)c(=O)c3c(C)noc23)c1` [Example 125, 7-(2,5-dimethoxyphenyl)-3-methyl-5-{(1R)-1-[4-(trifluoromethyl)phenyl]ethyl}[1,2]oxazolo[4,5-d]pyridazin-4(5H)-one], for which the concentration for a half-maximal effect (EC50) turned out to be 0.582 µM.
